Test results taken from US20070107143A1, “Oxidative treatment of hair with reduced hair damage” (priority 2001, published 2007).
Read-outs that look alike come from different tables or passages of the source.

Key:
[1] = Hydrogen Peroxide Decomposition Ratio Measurement Protocol; conditions: for Hydrogen Peroxide Decomposition Ratio (% Loss) / Peroxide % at t = 0 / Peroxide % at t = 30mn: pH 10, 300 ppm copper sulphate, 0.026M chelant; for Hydrogen Peroxide Decomposition Ratio (% Loss): after 30 minutes
Description: The Hydrogen Peroxide Decomposition Ratio Measurement Protocol is defined as follows: 6.0% by weight of concentrated ammonium hydroxide (30% active ammonia) is added to deionised water and the pH of the solution is adjusted to 10 using acetic acid. 300 ppm of copper sulphate and 0.026M of the chelant to be tested are added to said composition. […] The initial level of hydrogen peroxide is measured at this moment (t=0); the final level of hydrogen peroxide is measured after 30 minutes. The value of the ratio of the hydrogen peroxide concentration at t=0 and at t=30 mn is the Hydrogen Peroxide Decomposition Ratio (% Loss).
The initial and final level of hydrogen peroxide can be measured according to any standard technique. The following is a well-known and standard technique that was used by the inventors: 0.2-0.3 g (the exact quantity being precisely measured) of the solution to be titrated is added to 40 ml of 10% acetic acid. […] The level of hydrogen peroxide (% Peroxide) is then calculated from the following equation: [formula]
Three replicate runs are made at both t=0 and t=30 mn and then averaged to calculate the Hydrogen Peroxide Decomposition Ratio (% Loss).

[2] = tetra-protonated chelants; cited from earlier work
[3] = Goniophotometer Damage Assessing Protocol after Oxidative Hair Treatment Protocol With 10 Intermediate Washes; design: species or system human
Description: A bleaching composition comprising the chelant to be tested is prepared by mixing in equal weight amounts a hydrogen peroxide emulsion base and an alkaline (high pH) emulsion base. 2 g Of the bleaching composition per g of hair to be treated was applied on the hair switches and massaged in thoroughly. The hair switches were then wrapped in a plastic film and put in an oven at 30° C. […] The rinsing water flow was adjusted to 6 liters per minute). […] The excess water was then squeezed out of the hair, and the hair dried with a fan. […] Prell® shampoo was using during these tests. This Oxidative Hair Treatment Protocol can be repeated several times.

[4] = log Conditional Stability Constant at pH 10 with Ca
[5] = 25deg, 0.1M ionic strength; fully deprotonated chelants; cited from earlier work
[6] = 25deg, 0.1M ionic strength; fully deprotonated chelants; cited from earlier work; remark: listed apart in the source
[7] = log Conditional Stability Constant at pH 10 with Cu; conditions: for Ratio Cu/Ca of log Conditional Stability Constants: log KCuL / log KCaL
[8] = FT-IR Damage Assessing Protocol after 5-Cycle Oxidative Hair Treatment Protocol With 2 Intermediate Washes; design: species or system human; conditions: for Damage after 5 cycles (cysteic acid units): 2 intermediate washes, pH 10
Description: For each chelant tested, seven switches of virgin dark hair were used. […] The switches usually weighed about 1.5 g each and are treated stepwise according to the following protocol.
A bleaching composition comprising the chelant to be tested is prepared by mixing in equal weight amounts a hydrogen peroxide emulsion base and an alkaline (high pH) emulsion base.
2 g Of the bleaching composition per g of hair to be treated was applied on the hair switches and massaged in thoroughly. The hair switches were then wrapped in a plastic film and put in an oven at 30° C. After 30 mn, they were removed from the oven and from the wrapping film and rinsed for 1 mn in water. 0.1 g of shampoo per g. of hair was then added and milked for 30 s at a rate of at least 150 strokes a minute before rinsing for 30 s. […] The concentration of copper (Cu^2+) ions was kept at about 1 ppm (+/−10%), the exact concentrations being measured by a standard analytic method. The rinsing water flow was adjusted to 6 liters per minute). The same shampooing and rinsing process was repeated another time (this is the “Oxidative Hair Treatment Protocol With 2 Intermediate Washes” referred to in the claims) or 9 additional times (this is the “Oxidative Hair Treatment Protocol With 10 Intermediate Washes” referred to in the claims) depending on the Damage Assessment Protocol used. The excess water was then squeezed out of the hair, and the hair dried with a fan. Any standard shampoo can be used in this protocol as long as it is free from transition metal ions such as copper ion and that the level chelants is less than 0.1% by weight of the shampoo. Prell® shampoo was using during these tests.
This Oxidative Hair Treatment Protocol can be repeated several times. […] This process is described as a 5-Cycle Oxidative Hair Treatment Protocol With 2 or 10 Intermediate Washes.
In particular, these authors have shown that the method is suitable for quantifying the amount of cysteic acid that is produced from the oxidation of cystine. In general, the oxidation of cystine is thought to be a suitable marker by which to monitor the overall oxidation of the keratinous part of the fiber.
They have shown that this technique is more suitable than using the FT-IR method in simple transmission or microscope modes. […] The detailed description of the method used for testing the different damage inhibitors follows thereafter:
A Perkin Elmer Spectrum® 1 Fourier Transform Infrared (FTIR) system equipped with a diamond Attenuated Total Internal Reflection (ATR) cell was used to measure the cysteic acid concentration in human hair. In this method, hair switches of various sizes and colours can be used. The switches were platted (˜1 plait per cm) in order to minimize variations in surface area of contact between readings. The Oxidative Hair Treatment Protocol described above was repeated for 5 cycles to mimic the behavior of hair after repeated bleaching cycles. Following this treatment, four readings per switch were taken (˜⅓ and ⅔ s down the switch on both sides), and an average calculated. Backgrounds were collected every 4 readings, and an ATR cell pressure of 1N/m was employed. The cell was cleaned with ethanol between each reading, and a contamination check performed using the monitor ratio mode of the instrument. […] The original spectra were initially converted to absorbance, before being normalized to the 1450 cm^−1 band (the characteristic and invariant protein CH2 stretch). This normalized absorbance was then twice derivatised using a 13 point averaging. The value of the 1450 cm^−1 normalized 2nd derivative of the absorbance at 1040 cm^−1 was taken as the relative concentration of cysteic acid. This figure was multiplied by −1×10^−4 to recast it into suitable units. […] The following instrumental conditions were employed:
The weight percentages for each chelant are indicated in the first line of the table below.

[9] = not given; remark: listed apart in the source
[10] = 1.9% weight on-head, tri-sodium salt, 5 cycles
[11] = 3.8% weight on-head, tetra-sodium salt, 5 cycles
[12] = 2.0% weight on-head (tetra-sodium EDTA, di-sodium HEDP), 5 cycles

| Compound | Hydrogen Peroxide Decomposition Ratio (% Loss) [1] | Peroxide % at t = 0 [1] | Peroxide % at t = 30mn [1] | log protonation constant H2L^2− [2] | log protonation constant H3L^− [2] | log protonation constant H4L [2] | log protonation constant HL^3− [2] | log Conditional Stability Constant (pH 10) Ca [4] | log K (stability constant, 1:1 complex) Cu [5] | log K (stability constant, 1:1 complex) Ca [6] | log Conditional Stability Constant (pH 10) Cu [7] | Ratio Cu/Ca of log Conditional Stability Constants [7] | Damage after 5 cycles (cysteic acid units) [8, 12] | also measured |
| --- | --- | --- | --- | --- | --- | --- | --- | --- | --- | --- | --- | --- | --- | --- |
| CC(C(=O)O)N(CC(=O)O)CC(=O)O (stereo not drawn) [MGDA, methylglycinediacetic acid] | 11.3% | 3.498% | 3.104% | – | – | – | – | – | – | – | – | – | – | – |
| O=C(O)CC(NCCNC(CC(=O)O)C(=O)O)C(=O)O (stereo not drawn) [EDDS, ethylenediamine-N,N′-disuccinic acid] | 1.5% | 3.150% | 3.104% | 6.84 | 3.86 | 2.95 | 10.01 | 4.27 | 18.35 | 4.58 | 16.04 | 3.76 | – | Normalized shine ratio (hair treated after 9 cycles/ virgin hair) ([3]; 0.95 weight %, tri-sodium salt): 1.03; Hair damage compared with any other chelant (in words) ([8]; 1.9% by weight, 5 cycles): much less damage; Damage benefit vs EDTA 2% [8, 10]: +33%; Damage after 5 cycles (cysteic acid units) [8, 10]: 110 cysteic acid units; Damage benefit (in words) ([8]; concentrations much lower than 1.9% by weight on head): excellent benefits |
| O=P(O)(O)CN(CCN(CP(=O)(O)O)CP(=O)(O)O)CCN(CP(=O)(O)O)CP(=O)(O)O [DTPMP, diethylene-triamine-penta-(methylenephosphonic acid)] | – | 3.078% | 2.964% | – | – | – | – | – | – | – | – | – | – | log Conditional Stability Constant (pH 10) Cu: 15.14; log Conditional Stability Constant (pH 10) Ca [9]: 4.74; Damage benefit vs EDTA 2% [8, 11]: +14%; Damage after 5 cycles (cysteic acid units) [8, 11]: 142 cysteic acid units |
| CC(O)(P(=O)(O)O)P(=O)(O)O [HEDP, 1-hydroxyethane-1,1-diphosphonic acid] | 32.3% | 4.126% | 2.792% | 6.88 | 2.53 | 1.8 | 10.8 | 5.13 | 11.84 | 6.0 | 8.98 | 1.75 | 163 cysteic acid units | Normalized shine ratio (hair treated after 9 cycles/ virgin hair) ([3]; 1.0 weight % (tetra-sodium EDTA, di-sodium HEDP)): 0.730; Damage benefit vs EDTA 2% ([8]; 2.0% weight on-head, di-sodium salt, 5 cycles): +1% |
| O=C(O)CC(NCC(O)CNC(CC(=O)O)C(=O)O)C(=O)O (stereo not drawn) [HPPDS, 2-hydroxypropylenediamine-N,N′-disuccinic acid] | – | – | – | – | – | – | – | – | – | – | – | – | – | Normalized shine ratio (hair treated after 9 cycles/ virgin hair) ([3]; 0.97 weight %, tetra-sodium salt): 1.00 |
| O=C(O)CN(CCN(CC(=O)O)CC(=O)O)CC(=O)O [EDTA, ethylenediaminetetraacetic acid] | – | 3.576% | 3.573% | – | – | – | – | – | 18.78 | 10.65 | 16.37 | – | 165 cysteic acid units | Capacity at inhibiting the red-ox chemistry of copper (in words) ([1]; lab condition, de-ionized water): very good capacity; Damage prevention properties (in words) ([8]; real conditions of use, high copper and Ca^2+ concentrations): very poor damage prevention properties; Damage benefit (in words) ([8]; unless utilized at levels much higher than 0.1%): very little benefits |
